Test: Relaxivity determinations (T1 and T2 relaxation times, Bruker Minispec mq60)
Type: physicochemical
Conditions: in PBS, 0.25-1 mM Fe chelate, 60 MHz, 40° C.; gradient of 1/T1 vs Fe chelate concentration
Method: A stock solution having a concentration of 1 mM of the contrast enhancement agent was prepared in phosphate buffered saline (PBS) and the iron concentration was verified by elemental analysis. Separate 0.75 mM, 0.50 mM and 0.25 mM samples were prepared from the stock by dilution in PBS and the T1 and T2 relaxations times were recorded in triplicate for each using sample on a Bruker Minispec mq60 instrument (60 MHz, 40° C.). The relaxivities (r1 and r2) were obtained as the gradient of 1/Tx (x=1,2) plotted against Fe chelate concentration following linear least squares regression analysis. Data for contrast enhancement agents having structures III, IV, V, VI, VII, and VII, and a non-hydroxylated control contrast enhancement agent.

Substance | r1 relaxivity [mM⁻¹ s⁻¹]
FeHBED(OH)2 [IV] | 0.8
FeHBED(OH')2 [VII] | 1.0
FeHBED(Me)2(OH)2 [III] | 0.9
FeHBED(OH) [VI] | 1.1
